Data from patent publication EP1948196B1, “USE OF TETRAORGANOSILICON COMPOUNDS” (Salama, Zoser B., priority 2005, dated 2007).
Converted amounts (≈) assume the structure as drawn. Numbered stars: 1 amine (or outer) side, 2 acyl side, 3 side chain; on linkers, the order of the positions; unused ones are H or OH. Bridge positions count the residues as written; N and C are the ends. Peptide text beside a SMILES is read from it. I, II: the chains in the order shown. OSiEt2O = CC[Si](CC)(O[*:1])O[*:2]

Key:
[1] = tested on: Medulloblastome; experiment: Effect on medulloblastomas
[2] = tested on: Panc1 Pankreaskrebszellen; experiment: subG1 apoptotic fraction, propidium iodide, flow cytometry; format: cell-based; settings: 50 µg/ml, 4 Tage
Procedure: (§1) Die Zellen (IEC6 mausartige Enterozyten; Panc1 Pankreaskrebszellen; Colo205 Kolonkarzinom) wurden mit 50 µg/ml Silanen inkubiert und nach 4-tägiger Aussetzung auf DNA eingefärbt (Propidiumiodid). Die SubG1 Zellteilung wurde mittels Durchflusscytometrie bestimmt.

[3] = tested on: IEC6 mausartige Enterozyten; experiment: as above; format: cell-based; settings: 50 µg/ml, 4 Tage
Procedure: as §1

[4] = tested on: Colo205 Kolonkarzinom; experiment: as above; format: cell-based; settings: 50 µg/ml, 4 Tage
Procedure: as §1

[5] = tested on: colo205 (Kofon-Karzinom); experiment: MTT test, triplicate, two-fold dilutions; format: cell-based; settings: Homo sapiens, COLO 205, read-out: IC50 Colo205
Procedure: (§2) Die Silan wurden in Ethanol aufgelöst und in Zellkulturmedien in Konzentrationen von bis zu 500 µg/ml resuspendiert. Es wurden MTT Tests in dreifacher Ausführung durchgeführt, für welche doppelte Lösungen (7 Schritte) und colo205 (Kofon-Karzinom), BxPC3 (pankreatisches Adenokarzinom) sowie T47D (Brustkrebs) benutzt wurden.

[6] = tested on: BxPC3 (pankreatisches Adenokarzinom); experiment: MTT test, triplicate, two-fold dilutions; format: cell-based; settings: Homo sapiens, BXPC-3, read-out: IC50 BxPC3
Procedure: as §2

[7] = tested on: T47D (Brustkrebs); experiment: MTT test, triplicate, two-fold dilutions; format: cell-based; settings: Homo sapiens, T47D, read-out: IC50 T47D
Procedure: as §2

[8] = tested on: A431 Epidermalkarzinom; experiment: MTT assay / EZ4U test, 4 days; format: cell-based; settings: Homo sapiens, A-431, read-out: IC50 A431
Procedure: (§3) Die Silane 1, 5, 9, 10, 11, 13, 15, 16 wurden in Ethanol gelöst und in MTT Assays in einer anfänglichen Konzentration von 200 µg/ml (5 Lösungsschritte 200 - 12.5 µg/ml) verwendet. Die Platten wurde für eine Dauer.von 4 Tagen inkubiert und die Entwicklungsfähigkeit mithilfe des EZ4U Test bestimmt. Die IC50 Werte wurden ausgehend von Dosierungs-Reaktions-Linien berechnet Zelllinien: Colo 205 and HT29 - Kolonkarzinom; BxPC3 and MIAPaCa2 - Pankreaskrebs; CRO2B - karzinoid, A431 Epidermalkarzinom; normale Zellen: WI38 - humane embryonale Fibroblasten; NIH3T3 - mausartige Fibroblasten; IEC6 - mausartige Enterozyten.

[9] = tested on: IEC6 - mausartige Enterozyten; experiment: MTT assay / EZ4U test, 4 days; format: cell-based; settings: Rattus norvegicus, IEC-6, read-out: IC50 IEC6
Procedure: as §3

[10] = tested on: Colo 205 - Kolonkarzinom; experiment: MTT assay / EZ4U test, 4 days; format: cell-based; settings: Homo sapiens, COLO 205, read-out: IC50 Colo205
Procedure: as §3

[11] = tested on: CRO2B - karzinoid; experiment: MTT assay / EZ4U test, 4 days; format: cell-based; settings: read-out: IC50 CR02B
Procedure: as §3

[12] = tested on: BxPC3 - Pankreaskrebs; experiment: MTT assay / EZ4U test, 4 days; format: cell-based; settings: Homo sapiens, BXPC-3, read-out: IC50 BxPC3
Procedure: as §3

[13] = tested on: NIH3T3 - mausartige Fibroblasten; experiment: MTT assay / EZ4U test, 4 days; format: cell-based; settings: Mus musculus, NIH3T3, read-out: IC50 NIH3T3
Procedure: as §3

[14] = tested on: WI38 - humane embryonale Fibroblasten; experiment: MTT assay / EZ4U test, 4 days; format: cell-based; settings: Homo sapiens, WI-38, read-out: IC50 WI38
Procedure: as §3

[15] = tested on: MIAPaCa2 - Pankreaskrebs; experiment: MTT assay / EZ4U test, 4 days; format: cell-based; settings: Homo sapiens, MIA PaCa-2, read-out: IC50 MlAPaCa2
Procedure: as §3

[16] = tested on: HT29 - Kolonkarzinom; experiment: MTT assay / EZ4U test, 4 days; format: cell-based; settings: Homo sapiens, HT-29, read-out: IC50 HT29
Procedure: as §3

[17] = tested on: Normale Zellen; experiment: Mean IC50 over all normal cell lines; format: cell-based; settings: read-out: IC50 Normale Zellen (Durchschnitt ± SD)
Procedure: as §3
(§4) Mittelwerte-IC50 für alle Krebs- oder normalen Zelllinien: […]

[18] = tested on: Krebszellen; experiment: Mean IC50 over all cancer cell lines; format: cell-based; settings: read-out: IC50 Krebszellen (Durchschnitt ± SD)
Procedure: as §3, §4

[19] = tested on: Rhino-Viren; experiment: Antiviral effect; settings: in particular as vesicles holding antisense constructs
[20] = tested on: Osteosarkome; experiment: Effect on osteosarcomas

Row | SMILES | Wirkung gegen Medulloblastome [1] | subG1 apoptotische Zellteilung Panc1 [2] | subG1 apoptotische Zellteilung IEC6 [3] | subG1 apoptotische Zellteilung Colo205 [4] | IC50 [5] [µg/mL] | IC50 [6] [µg/mL] | IC50 [7] [µg/mL] | IC50 [8] [µg/mL] | IC50 [9] [µg/mL] | IC50 [10] [µg/mL] | IC50 [11] [µg/mL] | IC50 [12] [µg/mL] | IC50 [13] [µg/mL] | IC50 [14] [µg/mL] | IC50 [15] [µg/mL] | IC50 [16] [µg/mL] | IC50 [17] [µg/mL] | IC50 [18] [µg/mL] | Wirkung gegen Rhino-Viren [19] | Wirkung auf Osteosarkome [20]
1 | CC[Si](CC)(OC(=O)CNC(=O)CNC(=O)CNC(=O)CN)OC(=O)CNC(=O)CNC(=O)CNC(=O)CN [Diethyl bis(tetraglycyl)silylester] (I: H-GGGG / II: H-GGGG; linker I:C-II:C via OSiEt2O) | zeigen eine Wirkung | – | – | – | – | – | – | – | – | – | – | – | – | – | – | – | – | – | – | –
2 | C[Si](C)(OC(=O)CNC(=O)CNC(=O)CNC(=O)CNC(=O)CNC(=O)CNC(=O)CNC(=O)CNC(=O)CN)OC(=O)CNC(=O)CNC(=O)CNC(=O)CNC(=O)CNC(=O)CNC(=O)CNC(=O)CNC(=O)CN [Dimethyl bis(nonaglycyl)silylester] | zeigen eine Wirkung | – | – | – | – | – | – | – | – | – | – | – | – | – | – | – | – | – | – | –
3 | CCCCCCCCCCCCCCCCC(=O)O[Si](CC)(CC)OC(=O)CCCCCCCCCCCCCCCC [Si1, Di (heptadecanoyloxy) diethylsilan] | – | 57,7 ± 0,07 | 6,55 ± 0,49 | 3.0 ± 0,14 | 125 (≈ 200 µM) | 15 (≈ 24 µM) | 15 (≈ 24 µM) | 31.8 (≈ 50.9 µM) | 28.1 (≈ 45 µM) | 37 (≈ 59.2 µM) | 22.8 (≈ 36.5 µM) | 37 (≈ 59.2 µM) | 36.2 (≈ 57.9 µM) | 26.2 (≈ 41.9 µM) | 50 (≈ 80 µM) | 41.5 (≈ 66.4 µM) | 30.1 (≈ 48.2 µM) | 33.2 (≈ 53.1 µM) | – | –
4 | CCCCCCCCCCCCCCC(=O)O[Si](OC(=O)CCCCCCCCCCCCCC)(c1ccccc1)c1ccccc1 [Si5, Di (pentadecanoyloxy) diphenylsilan] | – | 52,8 ± 3,4 | 6,35 ± 0,63 | 3,4 ± 0,28 | 70 (≈ 105 µM) | 60 (≈ 90.2 µM) | 20 (≈ 30.1 µM) | 36.3 (≈ 54.6 µM) | 32.5 (≈ 48.9 µM) | 43.8 (≈ 65.9 µM) | 35 (≈ 52.6 µM) | 25 (≈ 37.6 µM) | 55 (≈ 82.7 µM) | 36.5 (≈ 54.9 µM) | 38.5 (≈ 57.9 µM) | 40 (≈ 60.1 µM) | 41.3 (≈ 62.1 µM) | 34 (≈ 51.1 µM) | zeigen eine Wirkung | zeigen eine Wirkung
